{"source": "patent US9169254B2", "about": "“Spiroimidazolone derivative” (Chugai Seiyaku Kabushiki Kaisha, priority 2009, dated 2015)", "data": [{"target": "T1, human PTH1 receptor (Homo sapiens, UniProt Q03431)", "T1 sequence (Q03431 27-593)": "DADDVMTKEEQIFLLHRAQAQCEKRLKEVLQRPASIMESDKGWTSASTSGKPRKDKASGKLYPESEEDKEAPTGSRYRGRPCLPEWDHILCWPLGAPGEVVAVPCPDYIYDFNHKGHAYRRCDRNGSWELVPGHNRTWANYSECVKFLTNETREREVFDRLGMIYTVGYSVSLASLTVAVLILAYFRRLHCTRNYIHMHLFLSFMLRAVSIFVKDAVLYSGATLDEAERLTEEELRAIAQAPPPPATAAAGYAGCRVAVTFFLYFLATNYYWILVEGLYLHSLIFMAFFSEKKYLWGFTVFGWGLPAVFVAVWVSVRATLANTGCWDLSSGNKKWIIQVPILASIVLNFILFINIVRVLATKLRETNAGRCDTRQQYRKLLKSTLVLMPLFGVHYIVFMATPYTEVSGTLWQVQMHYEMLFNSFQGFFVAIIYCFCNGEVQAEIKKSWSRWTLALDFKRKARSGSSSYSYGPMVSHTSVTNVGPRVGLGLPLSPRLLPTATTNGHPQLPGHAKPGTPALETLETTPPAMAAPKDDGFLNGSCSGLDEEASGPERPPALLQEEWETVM", "assay": "In vitro cAMP signal activity in HKRK-B7 cells (LLC-PK1 cells overexpressing the human PTH1 receptor)", "type": "cell-based", "conditions": "HKRK-B7 cells; compound at 1×10^−3 M; […]; 0.1 µM", "units": {"cAMP production activity (%)": "%"}, "values": [{"compound": "CNC(=O)Nc1cccc(CCS(=O)(=O)N2CCC3(CC2)N=C(C2CCCCC2)NC3=O)c1C", "note": "[Compound 459, 1-{3-[2-(2-Cyclohexyl-4-oxo-1,3,8-triaza-spiro[4.5]dec-1-ene-8-sulfonyl)-ethyl]-2-methyl-phenyl}-3-methyl-urea]", "cAMP production activity (%)": 55}]}, {"target": "T1, human PTH1 receptor", "assay": "In vitro cAMP signal activity in HKRK-B7 cells (LLC-PK1 cells overexpressing the human PTH1 receptor)", "type": "cell-based", "conditions": "HKRK-B7 cells; compound at 1×10^−3 M; cAMP produced as percentage of that produced by hPTH(1-34) at 100 nM", "units": {"cAMP production activity (%)": "%"}, "values": [{"compound": "COCCC1CCC(C2=NC3(CCN(S(=O)(=O)CCc4ccc(NC(C)=O)cc4C)CC3)C(=O)N2)CC1", "note": "(stereo not drawn) [Compound 927, N-[4-(2-{2-[4-(2-Methoxy-ethyl)-cyclohexyl]-4-oxo-1,3,8-triaza-spiro[4.5]dec-1-ene-8-sulfonyl}-ethyl)-3-methyl-phenyl]-acetamide]", "cAMP production activity (%)": 80}, {"compound": "CCCCC1CCC(C2=NC3(CCN(S(=O)(=O)/C=C/c4c(C)cc(N(CCOCCF)C(C)=O)cc4C)CC3)C(=O)N2)CC1", "note": "(stereo not drawn) [Compound 562, N-(4-{(E)-2-[2-(4-butyl-cyclohexyl)-4-oxo-1,3,8-triaza-spiro[4.5]dec-1-ene-8-sulfonyl]-vinyl}-3,5-dimethyl-phenyl)-N-[2-(2-fluoro-ethoxy)-ethyl]-acetamide]", "cAMP production activity (%)": 74}, {"compound": "CC(=O)N(CCOCCO)c1cc(C)c(/C=C/S(=O)(=O)N2CCC3(CC2)N=C(C2CCC(CCC(F)(F)F)CC2)NC3=O)c(C)c1", "note": "(stereo not drawn) [Compound 699, N-[3,5-Dimethyl-4-((E)-2-{4-oxo-2-[4-(3,3,3-trifluoro-propyl)-cyclohexyl]-1,3,8-triaza-spiro[4.5]dec-1-ene-8-sulfonyl}-vinyl)-phenyl]-N-[2-(2-hydroxy-ethoxy)-ethyl]-acetamide]", "cAMP production activity (%)": 101}, {"compound": "Cc1cc(C(=O)N(C)C)ccc1CCS(=O)(=O)N1CCC2(CC1)N=C(C1CCOCC1)NC2=O", "note": "[Compound 123, 3,N,N-trimethyl-4-{2-[4-oxo-2-(tetrahydro-pyran-4-yl)-1,3,8-triaza-spiro[4.5]dec-1-ene-8-sulfonyl]-ethyl}-benzamide]", "cAMP production activity (%)": 23}, {"compound": "Cc1cc(N(C)C(N)=O)cc(C)c1CCS(=O)(=O)N1CCC2(CC1)N=C(C1CCC3(CC1)CC3)NC2=O", "note": "[Compound 1058, 1-{3,5-dimethyl-4-[2-(4-oxo-2-spiro[2.5]oct-6-yl-1,3,8-triaza-spiro[4.5]dec-1-ene-8-sulfonyl)-ethyl]-phenyl}-1-methyl-urea]", "cAMP production activity (%)": 133}, {"compound": "Cc1cc(C(=O)N2CCC(C)(O)CC2)cc(C)c1CCS(=O)(=O)N1CCC2(CC1)N=C(C1CCC(C)CC1)NC2=O", "note": "(stereo not drawn) [Compound 1382, 8-{2-[4-(4-hydroxy-4-methyl-piperidine-1-carbonyl)-2,6-dimethyl-phenyl]-ethanesulfonyl}-2-(4-methyl-cyclohexyl)-1,3,8-triaza-spiro[4.5]dec-1-en-4-one]", "cAMP production activity (%)": 93}, {"compound": "Cc1cc(N2C(=O)CNC2=O)cc(C)c1/C=C/S(=O)(=O)N1CCC2(CC1)N=C(c1ccc(F)c(C(F)(F)F)c1)NC2=O", "note": "[Compound 636, 3-(4-{(E)-2-[2-(4-Fluoro-3-trifluoromethyl-phenyl)-4-oxo-1,3,8-triaza-spiro[4.5]dec-1-ene-8-sulfonyl]-vinyl}-3,5-dimethyl-phenyl)-imidazolidine-2,4-dione]", "cAMP production activity (%)": 88}, {"compound": "CN(C)C(=O)CNc1ccc(/C=C/S(=O)(=O)N2CCC3(CC2)N=C(C2CCCCC2)NC3=O)c(C(F)(F)F)c1", "note": "[Compound 201, 2-{4-[(E)-2-(2-cyclohexyl-4-oxo-1,3,8-triaza-spiro[4.5]dec-1-ene-8-sulfonyl)-vinyl]-3-trifluoromethyl-phenylamino}-N,N-dimethyl-acetamide]", "cAMP production activity (%)": 56}, {"compound": "O=C(Cc1ccncc1)N1CCCC(C2=NC3(CCN(S(=O)(=O)CCc4cccc5ccccc45)CC3)C(=O)N2)C1", "note": "(stereo not drawn) [Compound 438, 8-(2-naphthalen-1-yl-ethanesulfonyl)-2-[1-(2-pyridin-4-yl-acetyl)-piperidin-3-yl]-1,3,8-triaza-spiro[4.5]dec-1-en-4-one]", "cAMP production activity (%)": 14}, {"compound": "C=CCCCCC(=O)N(C)c1cc(C)c(CCS(=O)(=O)N2CCC3(CC2)N=C(CCCCC=C)NC3=O)c(C)c1", "note": "[Compound 1446, Hept-6-enoic acid {4-[2-(2-hex-5-enyl-4-oxo-1,3,8-triaza-spiro[4.5]dec-1-ene-8-sulfonyl)-ethyl]-3,5-dimethyl-phenyl}-methyl-amide]", "cAMP production activity (%)": 88}, {"compound": "Cc1cc(C(=O)N2CCC(C)(O)CC2)cc(C)c1/C=C/S(=O)(=O)N1CCC2(CC1)N=C(c1ccc(F)c(C(F)F)c1)NC2=O", "note": "[Compound 1217, 2-(3-difluoromethyl-4-fluoro-phenyl)-8-{(E)-2-[4-(4-hydroxy-4-methyl-piperidine-1-carbonyl)-2,6-dimethyl-phenyl]-ethenesulfonyl}-1,3,8-triaza-spiro[4.5]dec-1-en-4-one]", "cAMP production activity (%)": 68}, {"compound": "CCCCC1CCC(C2=NC3(CCN(S(=O)(=O)CCc4ccc(N5C(=O)CNC5=O)cc4C)CC3)C(=O)N2)CC1", "note": "(stereo not drawn) [Compound 880, 3-(4-{2-[2-(4-Butyl-cyclohexyl)-4-oxo-1,3,8-triaza-spiro[4.5]dec-1-ene-8-sulfonyl]-ethyl}-3-methyl-phenyl)-imidazolidine-2,4-dione]", "cAMP production activity (%)": 68}, {"compound": "Cc1cc(C(=O)N(C)C)ccc1CCS(=O)(=O)N1CCC2(CC1)N=C(c1cccc(Cl)c1F)NC2=O", "note": "[Compound 93, 4-{2-[2-(3-chloro-2-fluoro-phenyl)-4-oxo-1,3,8-triaza-spiro[4.5]dec-1-ene-8-sulfonyl]-ethyl}-3,N,N-trimethyl-benzamide]", "cAMP production activity (%)": 111}, {"compound": "Cc1cc(C(=O)N(C)C)ccc1CCS(=O)(=O)N1CCC2(CC1)N=C(c1cc(C(F)(F)F)ccc1C)NC2=O", "note": "[Compound 112, 3,N,N-trimethyl-4-{2-[2-(2-methyl-5-trifluoromethyl-phenyl)-4-oxo-1,3,8-triaza-spiro[4.5]dec-1-ene-8-sulfonyl]-ethyl}-benzamide]", "cAMP production activity (%)": 77}, {"compound": "Cc1cc(C(=O)N2CCC(OC[C@H](O)CO)CC2)cc(C)c1CCS(=O)(=O)N1CCC2(CC1)N=C(C1CCC(CCC(F)(F)F)CC1)NC2=O", "note": "(stereo partly drawn) [Compound 1384, 8-(2-{4-[4-((R)-2,3-dihydroxy-propoxy)-piperidine-1-carbonyl]-2,6-dimethyl-phenyl}-ethanesulfonyl)-2-[4-(3,3,3-trifluoro-propyl)-cyclohexyl]-1,3,8-triaza-spiro[4.5]dec-1-en-4-one]", "cAMP production activity (%)": 78}, {"compound": "Cc1cc(C(=O)N2CCC(O)(CF)CC2)cc(C)c1/C=C/S(=O)(=O)N1CCC2(CC1)N=C(c1ccc(OCC(F)(F)C(F)(F)F)c(C(F)(F)F)c1)NC2=O", "note": "[Compound 1249, 8-{(E)-2-[4-(4-fluoromethyl-4-hydroxy-piperidine-1-carbonyl)-2,6-dimethyl-phenyl]-ethenesulfonyl}-2-[4-(2,2,3,3,3-pentafluoro-propoxy)-3-trifluoromethyl-phenyl]-1,3,8-triaza-spiro[4.5]dec-1-en-4-one]", "cAMP production activity (%)": 62}, {"compound": "Cc1cc(N(C)C(N)=O)cc(C)c1/C=C/[S@TB3](=O)(=O)N1CCC2(CC1)N=C(c1ccc(F)c(OC(F)(F)F)c1)NC2=O", "note": "[Compound 1111, 1-(4-{(E)-2-[2-(4-fluoro-3-trifluoromethoxy-phenyl)-4-oxo-1,3,8-triaza-spiro[4.5]dec-1-ene-8-sulfonyl]-vinyl}-3,5-dimethyl-phenyl)-1-methyl-urea]", "cAMP production activity (%)": 79}, {"compound": "Cc1cc(N(C)C(=O)C(F)(F)F)cc(C)c1CCS(=O)(=O)N1CCC2(CC1)N=C(C1CCCC(C)C1)NC2=O", "note": "(stereo not drawn) [Compound 932, N-(3,5-Dimethyl-4-{2-[2-(3-methyl-cyclohexyl)-4-oxo-1,3,8-triaza-spiro[4.5]dec-1-ene-8-sulfonyl]-ethyl}-phenyl)-2,2,2-trifluoro-N-methyl-acetamide]", "cAMP production activity (%)": 66}, {"compound": "O=C1NC(C2CCCCC2)=NC12CCN(S(=O)(=O)CCc1cccc3c1ccn3CCC(O)CO)CC2", "note": "(stereo not drawn) [Compound 748, 2-cyclohexyl-8-{2-[1-(3,4-dihydroxy-butyl)-1H-indol-4-yl]-ethanesulfonyl}-1,3,8-triaza-spiro[4.5]dec-1-en-4-one]", "cAMP production activity (%)": 61}, {"compound": "Cc1cc(N(C(N)=O)C2CCCC2)ccc1/C=C/S(=O)(=O)N1CCC2(CC1)N=C(c1cccc(OC(F)(F)F)c1)NC2=O", "note": "[Compound 730, 1-cyclopentyl-1-(3-methyl-4-{(E)-2-[4-oxo-2-(3-trifluoromethoxy-phenyl)-1,3,8-triaza-spiro[4.5]dec-1-ene-8-sulfonyl]-vinyl}-phenyl)-urea]", "cAMP production activity (%)": 74}, {"compound": "Cc1cc(CN)cc(C)c1/C=C/S(=O)(=O)N1CCC2(CC1)N=C(C1CCC(C)CC1)NC2=O", "note": "(stereo not drawn) [Compound 1291, 8-[(E)-2-(4-aminomethyl-2,6-dimethyl-phenyl)-ethenesulfonyl]-2-(4-methyl-cyclohexyl)-1,3,8-triaza-spiro[4.5]dec-1-en-4-one]", "cAMP production activity (%)": 48}, {"compound": "Cc1cc(C(=O)N2CCN(C)CC2)ccc1CCS(=O)(=O)N1CCC2(CC1)N=C(c1cccc(C(F)(F)F)c1)NC2=O", "note": "[Compound 289, 8-{2-[2-methyl-4-(4-methyl-piperazine-1-carbonyl)-phenyl]-ethanesulfonyl}-2-(3-trifluoromethyl-phenyl)-1,3,8-triaza-spiro[4.5]dec-1-en-4-one]", "cAMP production activity (%)": 99}, {"compound": "Cc1cc(N2CCOCC2=O)cc(C)c1/C=C/S(=O)(=O)N1CCC2(CC1)N=C(C1CCC(CCC(F)(F)F)CC1)NC2=O", "note": "(stereo not drawn) [Compound 550, 8-{(E)-2-[2,6-dimethyl-4-(3-oxo-morpholin-4-yl)-phenyl]-ethenesulfonyl}-2-[4-(3,3,3-trifluoro-propyl)-cyclohexyl]-1,3,8-triaza-spiro[4.5]dec-1-en-4-one]", "cAMP production activity (%)": 124}]}]}
